Bounds are passed on as bounds.

Here are results for 15 compounds from US8394991B2, “Phenoxy substituted phenylamidine derivatives and their use as fungicides” (Bayer Cropscience AG, priority 2007, dated 2013).

In data set [1] the test system is Erysiphe graminis f. sp. Hordei. The data set is described as follows: Erysiphe test (barley) / protective. The format is in vivo. The note with it: Blumeria graminis, 168 h; barley plants, protective spray, 500 ppm active compound, evaluation 7 days after inoculation; read-out: efficacy. On the procedure:
Solvent: 49 parts by weight of N,N-dimethylformamide
Emulsifier: 1 part by weight of alkylaryl polyglycol ether
To produce a suitable preparation of active compound, 1 part by weight of N-ethyl-N-methyl-N′-[4-phenoxy-2,5-xylyl]formamidine (according to formula I-a) is mixed with the stated amounts of solvent and emulsifier, and the concentrate is diluted with water to the desired concentration.
To test for protective activity, young cereal plants are sprayed with the active compound preparation at the stated application rate. 1 day after the treatment, the plants are inoculated with spores of Erysiphe graminis f. sp. Hordei. The plants are then placed in a greenhouse at 70% relative atmospheric humidity and a temperature of 18° C.
Evaluation is carried out 7 days after the inoculation. 0% means an efficacy which corresponds to that of the control, whereas an efficacy of 100% means that no infection is observed.

As a reminder, the logP is a log measure of how a compound divides between an organic and an aqueous phase. For `CCN(C)C=Nc1cc(C)c(Oc2cccc(CCCO)c2)cc1C` [Compound 57-1, N-ethyl-N′-{4-[3-(3-hydroxypropyl)phenoxy]-2,5-dimethylphenyl}-N-methylimidoformamide], the logP in “logP (acidic, pH 2.3)” (pH 2.3) was 1.56. Consider `CCN(C)C=Nc1cc(C)c(Oc2cccc(C(C)(CC)OC)c2)cc1C` (stereo not shown) [Compound 8, N-ethyl-N′-{4-[3-(1-methoxy-1-methylpropyl)phenoxy]-2,5-dimethylphenyl}-N-methylimidoformamide], for which the pest or weed control at 500 ppm in data set [1] was not below 70%. In the case of `CCCN(C)C=Nc1cc(C)c(Oc2cccc(C(C)(C)OC)c2)cc1C` [Compound 65-1, N′-{4-[3-(1-methoxy-1-methylethyl)-phenoxy]-2,5-dimethylphenyl}-N-methyl-N-propyl imidoformamide], the logP acidic in “logP (acidic, pH 2.3)” (acidic) is given as 2.50. With `Cc1cc(/N=C/N2CCCCC2C)c(Cl)cc1Oc1cccc(C(C)C)c1` (stereo not shown) [Compound 61-4, 2-chloro-4-(3-isopropylphenoxy)-5-methyl-N-[(1E)-(2-methylpiperidin-1-yl)methylene]aniline], the logP in the data set “logP (acidic, pH 2.3)” (pH 2.3) worked out at 2.67. Consider `CCN(C)C=Nc1cc(C)c(Oc2cccc(C(C)C)c2)cc1Cl` [Compound 61-1, N′-[2-chloro-4-(3-isopropylphenoxy)-5-methylphenyl]-N-ethyl-N-methylimidoformamide], for which the pest or weed control at 500 ppm in data set [1] was not below 70%. The compound further registered a logP in the data set “logP (acidic, pH 2.3)” (pH 2.3) of 2.38. `Cc1cc(N)c(Cl)cc1Oc1cccc(C(C)C)c1` [4-(3-Isopropylphenoxy)-2-chloro-5-methylaniline] had a logP in the data set “logP (acidic, pH 2.3)” (pH 2.3) of 4.68. As for `CCN(C)C=Nc1cc(C)c(Oc2cccc(C(C)(C)OC)c2)cc1C` [Compound 37, N-ethyl-N′-{4-[3-(1-methoxy-1-methylethyl)phenoxy]-2,5-dimethylphenyl}-N-methylimidoformamide], in data set [1], the pest or weed control at 500 ppm is not below 70%. Also, the lipophilicity (logP) in “logP (acidic, pH 2.3)” (pH 2.3) was found to be 2.14. On the same counts, the results for `CCN(C)C=Nc1cc(C)c(Oc2cccc(C3CC3)c2)cc1C` [Compound 64, N′-[4-(3-cyclopropylphenoxy)-2,5-dimethylphenyl]-N-ethyl-N-methylimido-formamide] are not below 70% and 2.35. On the same counts, the results for `Cc1cc(N=CN(C)C(C)C)c(Cl)cc1Oc1cccc(C(C)C)c1` [Compound 61-2, N′-[2-chloro-4-(3-isopropylphenoxy)-5-methylphenyl]-N-isopropyl-N-methylimidoformamide] are not below 70% and 2.54. With `Cc1cc(/N=C/N2CCCCC2)c(Cl)cc1Oc1cccc(C(C)C)c1` [Compound 61-3, 2-chloro-4-(3-isopropylphenoxy)-5-methyl-N-[(1E)-piperidin-1-ylmethylene]aniline], the logP in the data set “logP (acidic, pH 2.3)” (pH 2.3) worked out at 2.62.

The compound `COC(C)(C)c1cccc(Oc2cc(C)c(/N=C/N3CC(C)OC(C)C3)cc2C)c1` (stereo not shown) [Compound 65-2, N-[(1E)-(2,6-dimethyl-morpholin-4-yl)methylene]-4-[3-(1-methoxy-1-methylethyl)phenoxy]-2,5-dimethylaniline] had a log partition coefficient (logP) in the data set “logP (acidic, pH 2.3)” (pH 2.3) of 2.24. For the compound “4-(3-Isopropylphenoxy)-2-chloro-5-methylnitrobenzene”, the “log P (pH2.3)” value in the data set “logP (acidic, pH 2.3)” (pH 2.3) is recorded as 5.54. Turning to `Cc1cc(Oc2cccc(CCCO)c2)c(C)cc1N=CN(C)C(C)C` [Compound 57-2, N′-{4-[3-(3-hydroxypropyl)phenoxy]-2,5-dimethylphenyl}-N-isopropyl-N-methylimidoformamide], the pest or weed control at 500 ppm in data set [1] is not below 70%. The compound further yielded a logP in the data set “logP (acidic, pH 2.3)” (pH 2.3) of 1.67. As for `CCN(C)C=Nc1cc(C)c(Oc2cccc(CC(C)(C)C)c2)cc1C` [Compound 62, N′-{4-[3-(2,2-dimethylpropyl)phenoxy]-2,5-dimethylphenyl}-N-ethyl-N-methylimidoformamide], the pest or weed control at 500 ppm in data set [1] is not below 70%. The logP in “logP (acidic, pH 2.3)” (pH 2.3) came to 2.74. In the case of `CCN(C)C=Nc1cc(C)c(Oc2cccc(C[Si](C)(C)C)c2)cc1C` [Compound 63, N′-(2,5-dimethyl-4-{3-[(trimethylsilyl)methyl]-phenoxy}phenyl)-N-ethyl-N-methylimido-formamide], the pest or weed control at 500 ppm in data set [1] is not below 70%. The logP in “logP (acidic, pH 2.3)” (pH 2.3) was found to be 2.93.
